Values joined by “and” are separate entries in the source; they are usually repeats but may differ in a detail not shown here. Identical values can stand only once.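 Assay format: 96-well plates, 48-hour exposure. The concentration for 50% growth inhibition is given as GI50. TGI: total growth inhibition.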
What was measured:
Experiment in all cases: NCI anticancer screen, dose series, 48 h
786-0 renal = system: 786-0 renal
A549 NSCLC = system: A549 NSCLC
ACHN renal = system: ACHN renal
BT-549 breast = system: BT-549 breast
CCRF-CEM leukemia = system: CCRF-CEM leukemia
DU-145 prostate = system: DU-145 prostate
EKVX NSCLC = system: EKVX NSCLC
HCC-2998 colon = system: HCC-2998 colon
HCT-116 colon = system: HCT-116 colon
HCT-15 colon = system: HCT-15 colon
HL-60(TB) leukemia = system: HL-60(TB) leukemia
HOP-62 NSCLC = system: HOP-62 NSCLC
HS 578T breast = system: HS 578T breast
HT29 colon = system: HT29 colon
IGROV1 ovarian = system: IGROV1 ovarian
K-562 leukemia = system: K-562 leukemia
KM12 colon = system: KM12 colon
LOX IMVI melanoma = system: LOX IMVI melanoma
M14 melanoma = system: M14 melanoma
MALME-3M melanoma = system: MALME-3M melanoma
MCF7 breast = system: MCF7 breast
MDA-MB-435 = system: MDA-MB-435
MOLT-4 leukemia = system: MOLT-4 leukemia
NCI-H226 lung = system: NCI-H226 lung
NCI-H23 lung = system: NCI-H23 lung
NCI-H460 lung = system: NCI-H460 lung
NCI-H522 lung = system: NCI-H522 lung
NCI/ADR-RES ovarian = system: NCI/ADR-RES ovarian
OVCAR-3 ovarian = system: OVCAR-3 ovarian
OVCAR-4 ovarian = system: OVCAR-4 ovarian
OVCAR-5 ovarian = system: OVCAR-5 ovarian
OVCAR-8 ovarian = system: OVCAR-8 ovarian
PC-3 prostate = system: PC-3 prostate
RPMI-8226 leukemia = system: RPMI-8226 leukemia
RXF 393 renal = system: RXF 393 renal
SF-268 CNS = system: SF-268 CNS
SF-295 CNS = system: SF-295 CNS
SF-539 CNS = system: SF-539 CNS
SK-MEL-2 melanoma = system: SK-MEL-2 melanoma
SK-MEL-28 melanoma = system: SK-MEL-28 melanoma
SK-MEL-5 melanoma = system: SK-MEL-5 melanoma
SK-OV-3 ovarian = system: SK-OV-3 ovarian
SN12C renal = system: SN12C renal
SNB-19 CNS = system: SNB-19 CNS
SR leukemia = system: SR leukemia
SW-620 colon = system: SW-620 colon
TK-10 renal = system: TK-10 renal
U251 CNS = system: U251 CNS
UACC-257 melanoma = system: UACC-257 melanoma
UACC-62 melanoma = system: UACC-62 melanoma
UO-31 renal = system: UO-31 renal
A498 renal = system: A498 renal
CAKI-1 renal = system: CAKI-1 renal
COLO 205 colon = system: COLO 205 colon
HOP-92 NSCLC = system: HOP-92 NSCLC
MDA-MB-231 breast = system: MDA-MB-231 breast
SNB-75 CNS = system: SNB-75 CNS
T-47D breast = system: T-47D breast

Structure (SMILES): COC(=O)[C@H](Cc1ccccc1)NNC(=O)c1csc([C@@H](C[C@H](C(C)C)N(C)C(=O)[C@@H](NC(=O)[C@H]2CCCCN2C)C2CC2)OC(C)=O)n1
- TGI (786-0 renal): 25 µM and > 100 µM
- TGI (A549 NSCLC): 25 µM and > 100 µM
- TGI (ACHN renal): 25 µM and > 100 µM
- TGI (BT-549 breast): 0.317 µM and 0.973 µM
- GI50 (CCRF-CEM leukemia): 0.00377 µM and 0.0025 µM and 0.0213 µM
- TGI (CCRF-CEM leukemia): 25 µM and > 100 µM
- TGI (DU-145 prostate): 25 µM and > 100 µM
- TGI (EKVX NSCLC): > 100 µM
- TGI (HCC-2998 colon): 25 µM and > 100 µM
- TGI (HCT-116 colon): 25 µM and > 100 µM
- TGI (HCT-15 colon): 25 µM and > 100 µM
- GI50 (HL-60(TB) leukemia): 0.0013 µM
- TGI (HL-60(TB) leukemia): 0.00596 µM
- TGI (HOP-62 NSCLC): 25 µM and > 100 µM
- TGI (HS 578T breast): > 100 µM
- TGI (HT29 colon): 25 µM and > 100 µM
- TGI (IGROV1 ovarian): 25 µM and > 100 µM
- GI50 (K-562 leukemia): 0.00302 µM and 0.0025 µM and 0.0243 µM
- TGI (K-562 leukemia): 25 µM and > 100 µM
- TGI (KM12 colon): 25 µM and > 100 µM
- TGI (LOX IMVI melanoma): 25 µM and > 100 µM
- GI50 (M14 melanoma): 0.0112 µM and 0.0025 µM
- TGI (M14 melanoma): 25 µM
- TGI (MALME-3M melanoma): > 100 µM
- GI50 (MCF7 breast): 0.00392 µM and 0.0025 µM and 0.0244 µM
- TGI (MCF7 breast): 25 µM and > 100 µM
- GI50 (MDA-MB-435): 0.00165 µM and 0.0151 µM
- TGI (MOLT-4 leukemia): 25 µM and > 100 µM
- TGI (NCI-H226 lung): 25 µM and > 100 µM
- TGI (NCI-H23 lung): 25 µM and > 100 µM
- TGI (NCI-H460 lung): 25 µM and > 100 µM
- GI50 (NCI-H522 lung): 0.00154 µM and 0.0144 µM
- GI50 (NCI/ADR-RES ovarian): 15.7 µM and 11 µM
- TGI (NCI/ADR-RES ovarian): 25 µM and > 100 µM
- GI50 (OVCAR-3 ovarian): 0.00213 µM
- TGI (OVCAR-4 ovarian): 25 µM and > 100 µM
- TGI (OVCAR-5 ovarian): 25 µM and > 100 µM
- TGI (OVCAR-8 ovarian): 25 µM and > 100 µM
- TGI (PC-3 prostate): 25 µM and > 100 µM
- TGI (RPMI-8226 leukemia): 25 µM and > 100 µM
- GI50 (RXF 393 renal): 0.0025 µM
- TGI (RXF 393 renal): 25 µM
- TGI (SF-268 CNS): 25 µM and > 100 µM
- TGI (SF-295 CNS): 25 µM and > 100 µM
- GI50 (SF-539 CNS): 0.00648 µM and 0.0315 µM
- TGI (SF-539 CNS): 0.0564 µM and 0.461 µM
- GI50 (SK-MEL-2 melanoma): 0.035 µM and 0.0932 µM
- TGI (SK-MEL-2 melanoma): > 100 µM
- TGI (SK-MEL-28 melanoma): 25 µM and > 100 µM
- TGI (SK-MEL-5 melanoma): 0.51 µM and 2.26 µM
- GI50 (SK-OV-3 ovarian): 0.48 µM and 1 µM
- TGI (SK-OV-3 ovarian): > 100 µM
- TGI (SN12C renal): 25 µM and > 100 µM
- TGI (SNB-19 CNS): > 100 µM
- GI50 (SR leukemia): 0.00139 µM and 0.0025 µM
- TGI (SR leukemia): 25 µM and > 100 µM
- TGI (SW-620 colon): 25 µM and > 100 µM
- TGI (TK-10 renal): 25 µM and > 100 µM
- TGI (U251 CNS): 25 µM and > 100 µM
- TGI (UACC-257 melanoma): > 100 µM
- GI50 (UACC-62 melanoma): 0.0176 µM and 0.0025 µM
- TGI (UACC-62 melanoma): 25 µM
- TGI (UO-31 renal): 25 µM and > 100 µM

Structure (SMILES): Clc1ccc(C2CC(c3cccc(Nc4ccncc4)c3)=NN2c2ccccc2)cc1 (stereo not drawn)
- GI50 (A498 renal): 1.43 µM
- TGI (A498 renal): 3.3 µM
- GI50 (ACHN renal): 1.66 µM
- TGI (ACHN renal): 3.02 µM
- GI50 (BT-549 breast): 1.72 µM
- TGI (BT-549 breast): 3.38 µM
- GI50 (CAKI-1 renal): 1.5 µM
- TGI (CAKI-1 renal): 2.84 µM
- GI50 (CCRF-CEM leukemia): 1.94 µM
- TGI (CCRF-CEM leukemia): 5.41 µM
- GI50 (COLO 205 colon): 1.96 µM
- TGI (COLO 205 colon): 4.5 µM
- GI50 (DU-145 prostate): 1.73 µM
- TGI (DU-145 prostate): 3.27 µM
- GI50 (EKVX NSCLC): 1.58 µM
- TGI (EKVX NSCLC): 3.12 µM
- GI50 (HCC-2998 colon): 1.6 µM
- TGI (HCC-2998 colon): 3.06 µM
- GI50 (HCT-116 colon): 1.48 µM
- TGI (HCT-116 colon): 2.98 µM
- GI50 (HCT-15 colon): 1.42 µM
- TGI (HCT-15 colon): 2.83 µM
- GI50 (HL-60(TB) leukemia): 1.71 µM
- TGI (HL-60(TB) leukemia): 3.87 µM
- GI50 (HOP-62 NSCLC): 2.31 µM
- TGI (HOP-62 NSCLC): 5.15 µM
- GI50 (HOP-92 NSCLC): 1.4 µM
- TGI (HOP-92 NSCLC): 2.82 µM
- GI50 (HT29 colon): 1.69 µM
- TGI (HT29 colon): 3.62 µM
- GI50 (IGROV1 ovarian): 1.56 µM
- TGI (IGROV1 ovarian): 3.04 µM
- GI50 (K-562 leukemia): 1.67 µM
- TGI (K-562 leukemia): 5.45 µM
- GI50 (KM12 colon): 1.7 µM
- TGI (KM12 colon): 3.28 µM
- GI50 (LOX IMVI melanoma): 1.64 µM
- TGI (LOX IMVI melanoma): 3.06 µM
- GI50 (M14 melanoma): 1.73 µM
- TGI (M14 melanoma): 3.37 µM
- GI50 (MALME-3M melanoma): 1.58 µM
- TGI (MALME-3M melanoma): 3.14 µM
- GI50 (MCF7 breast): 1.65 µM
- TGI (MCF7 breast): 3.44 µM
- GI50 (MDA-MB-231 breast): 1.7 µM
- TGI (MDA-MB-231 breast): 3.21 µM
- GI50 (MDA-MB-435): 1.62 µM
- TGI (MDA-MB-435): 3.07 µM
- GI50 (MOLT-4 leukemia): 1.83 µM
- TGI (MOLT-4 leukemia): 4.32 µM
- GI50 (NCI-H226 lung): 16.4 µM
- TGI (NCI-H226 lung): 39.5 µM
- GI50 (NCI-H23 lung): 1.92 µM
- TGI (NCI-H23 lung): 3.7 µM
- GI50 (NCI-H460 lung): 1.91 µM
- TGI (NCI-H460 lung): 3.65 µM
- GI50 (NCI-H522 lung): 1.57 µM
- TGI (NCI-H522 lung): 3.24 µM
- GI50 (OVCAR-4 ovarian): 1.64 µM
- TGI (OVCAR-4 ovarian): 3.17 µM
- GI50 (OVCAR-5 ovarian): 1.66 µM
- TGI (OVCAR-5 ovarian): 3.07 µM
- GI50 (PC-3 prostate): 1.6 µM
- TGI (PC-3 prostate): 3.12 µM
- GI50 (RXF 393 renal): 1.67 µM
- TGI (RXF 393 renal): 3.08 µM
- GI50 (SF-268 CNS): 1.87 µM
- TGI (SF-268 CNS): 3.84 µM
- GI50 (SF-295 CNS): 1.66 µM
- TGI (SF-295 CNS): 3.07 µM
- GI50 (SF-539 CNS): 1.7 µM
- TGI (SF-539 CNS): 3.09 µM
- GI50 (SK-MEL-2 melanoma): 1.98 µM
- TGI (SK-MEL-2 melanoma): 3.84 µM
- GI50 (SK-MEL-28 melanoma): 1.77 µM
- TGI (SK-MEL-28 melanoma): 3.24 µM
- GI50 (SK-MEL-5 melanoma): 1.82 µM
- TGI (SK-MEL-5 melanoma): 3.26 µM
- GI50 (SK-OV-3 ovarian): 2.57 µM
- TGI (SK-OV-3 ovarian): 7.33 µM
- GI50 (SN12C renal): 1.78 µM
- TGI (SN12C renal): 3.31 µM
- GI50 (SNB-19 CNS): 1.71 µM
- TGI (SNB-19 CNS): 3.18 µM
- GI50 (SNB-75 CNS): 1.37 µM
- TGI (SNB-75 CNS): 2.79 µM
- GI50 (SW-620 colon): 1.67 µM
- TGI (SW-620 colon): 3.34 µM
- GI50 (T-47D breast): 2.1 µM
- TGI (T-47D breast): 4.86 µM
- GI50 (TK-10 renal): 1.83 µM
- TGI (TK-10 renal): 3.45 µM
- GI50 (U251 CNS): 1.89 µM
- TGI (U251 CNS): 3.81 µM
- GI50 (UACC-257 melanoma): 1.8 µM
- TGI (UACC-257 melanoma): 3.83 µM
- GI50 (UACC-62 melanoma): 1.71 µM
- TGI (UACC-62 melanoma): 3.13 µM
- GI50 (UO-31 renal): 1.47 µM
- TGI (UO-31 renal): 2.79 µM
